Test results from PubChem BioAssay (NCI).
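96-well plates; 48 h exposure; 5 concentrations. Endpoints by linear interpolation between flanking doses. Not reached: highest tested concentration assigned. TGI: concentration producing complete growth inhibition.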

Columns and labels:
Assay in all cases: growth of human tumour cells (NCI), 48 h
[1] = test system: SNB-75 CNS
[2] = test system: HT29 colon
[3] = test system: SF-539 CNS
[4] = test system: SN12C renal
[5] = test system: HCT-116 colon
[6] = test system: OVCAR-4 ovarian
[7] = test system: A498 renal
[8] = test system: SK-MEL-2 melanoma
[9] = test system: CCRF-CEM leukemia
[10] = test system: MOLT-4 leukemia
[11] = test system: SK-MEL-5 melanoma
[12] = test system: HOP-62 NSCLC
[13] = test system: COLO 205 colon
[14] = test system: LOX IMVI melanoma
[15] = test system: DU-145 prostate
[16] = test system: OVCAR-5 ovarian
[17] = test system: SW-620 colon
[18] = test system: SK-MEL-28 melanoma
[19] = test system: HL-60(TB) leukemia
[20] = test system: A549 NSCLC
[21] = test system: T-47D breast
[22] = test system: RPMI-8226 leukemia
[23] = test system: UACC-257 melanoma
[24] = test system: HCC-2998 colon
[25] = test system: NCI/ADR-RES ovarian
[26] = test system: U251 CNS
[27] = test system: OVCAR-8 ovarian
[28] = test system: EKVX NSCLC
[29] = test system: SR leukemia
[30] = test system: NCI-H522 lung
[31] = test system: MDA-MB-231 breast
[32] = test system: 786-0 renal
[33] = test system: MALME-3M melanoma
[34] = test system: SF-268 CNS
[35] = test system: CAKI-1 renal
[36] = test system: UACC-62 melanoma
[37] = test system: SK-OV-3 ovarian
[38] = test system: IGROV1 ovarian
[39] = test system: HCT-15 colon
[40] = test system: PC-3 prostate
[41] = test system: UO-31 renal
[42] = test system: HS 578T breast
[43] = test system: MDA-MB-435
[44] = test system: SF-295 CNS
[45] = test system: HOP-92 NSCLC
[46] = test system: OVCAR-3 ovarian
[47] = test system: NCI-H23 lung
[48] = test system: M14 melanoma
[49] = test system: NCI-H460 lung
[50] = test system: ACHN renal
[51] = test system: MDA-N
[52] = test system: NCI-H226 lung
[53] = test system: K-562 leukemia
[54] = test system: MCF7 breast
[55] = test system: RXF 393 renal
[56] = test system: KM12 colon

SMILES: CSc1nc2c3ccccc3ccn2c1C(=O)N/N=C/c1ccccc1
- TGI [1]: > 71.2 µM
- TGI [2]: > 100 µM
- TGI [3]: 9.53 µM
- TGI [4]: > 100 µM
- TGI [5]: 38.2 µM
- TGI [6]: 39.1 µM
- TGI [7]: > 100 µM
- TGI [8]: > 100 µM
- TGI [9]: > 100 µM
- TGI [10]: > 100 µM
- TGI [11]: > 100 µM
- TGI [12]: 27.2 µM
- TGI [13]: > 100 µM
- TGI [14]: > 100 µM
- TGI [15]: > 100 µM
- TGI [16]: > 100 µM
- TGI [17]: > 100 µM
- TGI [18]: > 100 µM
- TGI [19]: > 100 µM
- TGI [20]: > 100 µM
- TGI [21]: > 90.2 µM
- TGI [22]: > 100 µM
- TGI [23]: > 100 µM
- TGI [24]: > 100 µM
- TGI [25]: > 71.9 µM
- TGI [26]: 37.7 µM
- TGI [27]: 44.7 µM
- TGI [28]: > 100 µM
- TGI [29]: > 100 µM
- TGI [30]: > 100 µM
- TGI [31]: 40.8 µM
- TGI [32]: 42.3 µM
- TGI [33]: > 95.1 µM
- TGI [34]: > 72.1 µM
- TGI [35]: > 40 µM
- TGI [36]: > 100 µM
- TGI [37]: 43.7 µM
- TGI [38]: > 100 µM
- TGI [39]: > 100 µM
- TGI [40]: > 100 µM
- TGI [41]: 42.7 µM
- TGI [42]: > 71.6 µM
- TGI [43]: > 100 µM
- TGI [44]: > 72.4 µM
- TGI [45]: > 33.8 µM
- TGI [46]: 37.4 µM
- TGI [47]: > 100 µM
- TGI [48]: > 100 µM
- TGI [49]: > 73.7 µM
- TGI [50]: 25.3 µM
- TGI [51]: > 100 µM
- TGI [52]: > 100 µM
- TGI [53]: > 100 µM
- TGI [54]: > 100 µM
- TGI [55]: > 79.4 µM
- TGI [56]: > 100 µM
